Assay results as given in patent publication EP4644396A1 (Visionpharma (Nantong) Co., Ltd, priority 2022, dated 2024).

Target: T1, human TLR7 (Homo sapiens, UniProt Q9NYK1)
T1 sequence (Q9NYK1 27-1049): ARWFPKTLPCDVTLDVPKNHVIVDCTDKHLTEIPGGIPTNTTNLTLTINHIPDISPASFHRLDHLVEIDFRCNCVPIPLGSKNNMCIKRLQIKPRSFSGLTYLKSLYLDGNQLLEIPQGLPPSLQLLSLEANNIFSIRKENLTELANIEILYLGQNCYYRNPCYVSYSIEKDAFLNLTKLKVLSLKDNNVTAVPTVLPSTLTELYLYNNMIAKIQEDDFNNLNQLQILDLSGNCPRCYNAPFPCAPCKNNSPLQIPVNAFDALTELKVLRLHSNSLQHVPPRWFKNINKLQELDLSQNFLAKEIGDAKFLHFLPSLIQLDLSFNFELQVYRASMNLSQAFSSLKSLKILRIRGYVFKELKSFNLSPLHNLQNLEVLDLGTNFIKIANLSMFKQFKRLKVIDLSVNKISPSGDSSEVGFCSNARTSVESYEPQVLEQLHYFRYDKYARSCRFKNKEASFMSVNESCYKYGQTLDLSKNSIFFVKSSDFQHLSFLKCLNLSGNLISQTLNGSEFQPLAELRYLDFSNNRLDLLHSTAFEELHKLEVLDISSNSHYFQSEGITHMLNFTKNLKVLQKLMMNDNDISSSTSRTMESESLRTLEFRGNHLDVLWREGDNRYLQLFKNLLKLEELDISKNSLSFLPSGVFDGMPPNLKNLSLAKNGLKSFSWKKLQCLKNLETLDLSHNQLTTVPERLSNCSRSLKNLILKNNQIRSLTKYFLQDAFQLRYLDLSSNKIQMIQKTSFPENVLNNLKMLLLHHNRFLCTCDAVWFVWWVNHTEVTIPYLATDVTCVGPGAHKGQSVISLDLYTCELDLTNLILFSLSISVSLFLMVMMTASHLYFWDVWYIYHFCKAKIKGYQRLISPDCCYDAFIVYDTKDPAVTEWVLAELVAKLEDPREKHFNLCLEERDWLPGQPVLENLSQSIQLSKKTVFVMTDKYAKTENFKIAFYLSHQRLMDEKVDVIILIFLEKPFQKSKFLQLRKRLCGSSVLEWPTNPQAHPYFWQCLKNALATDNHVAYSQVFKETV
Assay: HEK-Blue hTLR7 SEAP reporter gene inhibition assay
Format: cell-based
Conditions: HEK-Blue hTLR7 IC50 (µM)
Procedure: (§1) HEK-Blue cells with stable expression of human TLR7 or TLR8 were used in the evaluation of inhibitory activity of compounds in the present invention against TLR7 or TLR8, by using its ability to induce the SEAP reporting gene under the control of the fusion of IFN-β minimum promoters into five NF-κB and ap-1 binding sites, as follows: hTLR7 HEK-Blue cells (Invivogen, 80, 000 cells per well) or hTLR8 HEK-Blue cells (60, 000 cells per well) were added to a 96-well cell culture plate. A solution of the testing compounds were added to each well, with the final concentration of tested compounds in the medium ranged from 0.001 to 36 µM and the culture was incubated for 15 minutes. M5049 was used as positive controls in the testing.
(§2) Then a TLR7 ligand (Gardiquimod, purchased from MedChemExpress, with final concentration of ligand in cell culture medium kept at 10 µM) or a TLR8 ligand (purchased from MedChemExpress with final concentration in cell culture media at 10 µM) and the culture was incubated for 20 hours. According to the manufacturer's instructions, a HEK-Blue reagent Quanti-blue (Invivogen) was used to detect the SEAP levels in cell cultures. The half […] concentration or IC50 was calculated by using GraphPad Prism. […] Table 1: Activities of examples in this invention to hTLR7/8 in HEK-Blue Cells

First: C[C@@H]1CN(c2ccc(C#N)n3ncc(F)c23)Cc2c3c(nn21)CCN(Cc1cn[nH]c1)C3 [Example I-54, (R)-4-(2-((1H-Pyrazole-4-yl)methyl) -7-methyl-1,3,4,7,8,10-hexahydropyridine[4 ', 3 ': 3, 4]pyrazole [1,5-a]pyrazine-9 (2H) -yl) -3-fluoropyrazole [1,5-a] pyridine-7-nitrile]
Second: C[C@@H]1CN(c2ccc(C#N)n3ncc(F)c23)Cc2c3c(nn21)CCN(Cc1ccn[nH]1)C3 [Example I-62]
The IC50 of the first is lower: under 0.05 µM for the first, over 0.05 µM for the second. The first is the more potent here.

Going from `C[C@@H]1CN(c2ccc(C#N)n3ncc(F)c23)Cc2c3c(nn21)CCN(CC(F)F)C3` [Example I-56, (R)-4-(2-(2,2-difluoroethyl) -7-methyl-1,3,4,7,8, 10-hexahydropyridine [4 ', 3 ': 3, 4]pyrazole [1,5-a]pyrazine-9 (2H) -yl) -3-fluoropyrazole [1,5-a] pyridine-7-nitrile] to `C[C@@H]1CN(c2ccc(C#N)n3ncc(F)c23)Cc2c3c(nn21)CN(CC(=O)N1CCNCC1)[C@@H](C)C3` [Example I-113], the IC50 falls from over 0.05 µM to under 0.05 µM. The second is the more potent here.

`C[C@@H]1CN(c2ccc(C#N)n3ncc(F)c23)Cc2c3c(nn21)CN(CC(=O)N1CC2(COC2)C1)[C@@H](C)C3` [Example I-112, 4-((4R, 9S) -4,9-dimethyl-8-(2-oxydioxy-2-(2-oxytrioxy-6-nitrous [3.3]helium-6-ethyl)ethyl) -3,4,7,8,9, 10-hydropyridine [3 ', 4 ': 3, 4]pyrazole [1,5-a]pyrazine-2 (1 H) - yl) -3-fluoropyrazole [1,5-a] pyridine-7-nitrile] was tested, and the IC50 was over 0.05 µM.

Same assay, conditions: hTLR7 HEK-Blue cells, TLR7 ligand Gardiquimod 10 µM, 20 hours, SEAP by Quanti-blue; class symbols; read-out: HEK-Blue hTLR7 IC50

`C[C@@H]1CN(c2ccc(C#N)n3ncc(F)c23)Cc2c3c(nn21)CCC(N)C3` (stereo partly drawn) [Example I-9, 4-((4R)-9-amino-4-methyl-3,4,7,8,9,10-hexahydropyrazino[1,2-b]indazol-2(1H)-yl)-3-fluoropyrazolo[1,5-a]pyridine-7-carbonitrile] and `C[C@@H]1CN(c2ccc(C#N)n3ncc(F)c23)Cc2c3c(nn21)CCC(C)(N)C3` (stereo partly drawn) [Example I-80, 4-((4R)-9-Amino-4,9-dimethyl-3,4,7,8,9,10-hexahydropyrazino[1,2-b]indazol-2(1H)-yl)-3-fluoropyrazolo[1,5-a]pyridine-7-carbonitrile] cannot be ordered by IC50: over 0.05 µM for the first, over 0.05 µM for the second.

Compared with `CC(C)N1CCc2c(nn3c2CN(c2ccc(C#N)n4ncc(F)c24)C[C@H]3C)C1` [Example I-23, (R)-3-Fluoro-4-(8-isopropyl-4-methyl-3,4,7,8,9,10-hexahydropyrido[3',4':3,4]pyrazolo[1,5-a]pyrazin-2(1H)-yl)pyrazolo[1,5-a]pyridine-7-carbonitrile], `CC(C)N1CCc2nn3c(c2C1)CN(c1ccc(C#N)n2ncc(F)c12)C[C@H]3C` [Example I-53, (R)-3-Fluoro-4-(2-isopropyl-7-methyl-1,3,4,7,8,10-hexahydropyrido[4',3':3,4]pyrazolo[1,5-a]pyrazin-9(2H)-yl)pyrazolo[1,5-a]pyridine-7-carbonitrile] is lower in IC50: over 0.05 µM for the first, under 0.05 µM for the second.

Compared with `CCN1CCc2nn3c(c2C1)CN(c1ccc(C#N)n2ncc(F)c12)C[C@H]3C` [Example I-25, (R)-4-(2-ethyl-7-methyl-1,3,4,7,8,10-hexahydropyrido[4',3':3,4]pyrazolo[1,5-a]pyrazin-9(2H)-yl)-3-fluoropyrazolo[1,5-a]pyridine-7-carbonitrile], `C[C@@H]1CN(c2ccc(C#N)n3ncc(F)c23)Cc2c3c(nn21)CCN(Cc1cnn(C)c1)C3` [Example I-67, (R)-3-Fluoro-4-(7-methyl-2-((1-methyl-1H-pyrazol-4-yl)methyl)-1,3,4,7,8,10-hexahydropyrido[4',3':3,4]pyrazolo[1,5-a]pyrazin-9(2H)-yl)pyrazolo[1,5-a]pyridine-7-carbonitrile] is higher in IC50: under 0.05 µM for the first, over 0.05 µM for the second. The first is the more potent here.

Going from `C[C@@H]1CN(c2ccc(C#N)n3ncc(F)c23)Cc2c3c(nn21)CCN(C1CCC1)C3` [Example I-49, (R)-4-(2-cyclobutyl-7-methyl-1,3,4,7,8,10-hexahydropyrido[4',3':3,4]pyrazolo[1,5-a]pyrazin-9(2H)-yl)-3-fluoropyrazolo[1,5-a]pyridine-7-carbonitrile] to `C[C@@H]1CN(c2ccc(C#N)n3ncc(F)c23)Cc2c3c(nn21)CN[C@H](CC#N)C3` [Example I-86, 4-((4R,9S)-9-(cyanomethyl)-4-methyl-3,4,7,8,9,10-hexahydropyrido[3',4':3,4]pyrazolo[1,5-a]pyrazin-2(1H)-yl)-3-fluoropyrazolo[1,5-a]pyridine-7-carbonitrile], the IC50 falls from over 0.05 µM to under 0.05 µM.

Compared with `CNC(=O)CN1Cc2nn3c(c2C[C@@H]1C)CN(c1ccc(C#N)n2ncc(F)c12)C[C@H]3C` [Example I-101, 2-((4R,9S)-2-(7-cyanide-3-fluoropyridox and [1,5-a]pyridox-4-base)-4,9-dimethyl-1,2,3,4,9, 10-hydropyridox [3 ', 4 ': 3, 4]pyrazolo [1,5-a]pyrazine-8 (7 H) -yl)-N-methyl acetamide], `C[C@@H]1CN(c2ccc(C#N)n3ncc(F)c23)Cc2c3c(nn21)CN(CC(=O)N(C)C)[C@@H](C)C3` [Example I-102, 2-((4R,9S)-2-(7-cyano-3-fluoropyrazolo[1,5-a]pyridin-4-yl)-4,9-dimethyl-1,2,3,4,9,10-hexahydropyrido[3',4':3,4]pyrazolo[1,5-a]pyrazin-8(7H)-yl)-N,N-dimethylacetamide] is lower in IC50: over 0.05 µM for the first, under 0.05 µM for the second. The second is the more potent here.

`C[C@@H]1CN(c2ccc(C#N)n3ncc(F)c23)Cc2c3c(nn21)CN(Cc1ncco1)[C@@H](C)C3` [Example I-133, 4-((4R,9S)-4,9-dimethyl-8-(oxazol-2-ylmethyl)-3,4,7,8,9,10-hexahydropyrido[3',4':3,4]pyrazolo[1,5-a]pyrazin-2(1H)-yl)-3-fluoropyrazolo[1,5-a]pyridine-7-carbonitrile] was tested, and the IC50 was over 0.05 µM.

Target: T2, human TLR8 (Homo sapiens, UniProt Q9NR97)
T2 construct: expressed in transfected cells
T2 sequence (Q9NR97 27-1041): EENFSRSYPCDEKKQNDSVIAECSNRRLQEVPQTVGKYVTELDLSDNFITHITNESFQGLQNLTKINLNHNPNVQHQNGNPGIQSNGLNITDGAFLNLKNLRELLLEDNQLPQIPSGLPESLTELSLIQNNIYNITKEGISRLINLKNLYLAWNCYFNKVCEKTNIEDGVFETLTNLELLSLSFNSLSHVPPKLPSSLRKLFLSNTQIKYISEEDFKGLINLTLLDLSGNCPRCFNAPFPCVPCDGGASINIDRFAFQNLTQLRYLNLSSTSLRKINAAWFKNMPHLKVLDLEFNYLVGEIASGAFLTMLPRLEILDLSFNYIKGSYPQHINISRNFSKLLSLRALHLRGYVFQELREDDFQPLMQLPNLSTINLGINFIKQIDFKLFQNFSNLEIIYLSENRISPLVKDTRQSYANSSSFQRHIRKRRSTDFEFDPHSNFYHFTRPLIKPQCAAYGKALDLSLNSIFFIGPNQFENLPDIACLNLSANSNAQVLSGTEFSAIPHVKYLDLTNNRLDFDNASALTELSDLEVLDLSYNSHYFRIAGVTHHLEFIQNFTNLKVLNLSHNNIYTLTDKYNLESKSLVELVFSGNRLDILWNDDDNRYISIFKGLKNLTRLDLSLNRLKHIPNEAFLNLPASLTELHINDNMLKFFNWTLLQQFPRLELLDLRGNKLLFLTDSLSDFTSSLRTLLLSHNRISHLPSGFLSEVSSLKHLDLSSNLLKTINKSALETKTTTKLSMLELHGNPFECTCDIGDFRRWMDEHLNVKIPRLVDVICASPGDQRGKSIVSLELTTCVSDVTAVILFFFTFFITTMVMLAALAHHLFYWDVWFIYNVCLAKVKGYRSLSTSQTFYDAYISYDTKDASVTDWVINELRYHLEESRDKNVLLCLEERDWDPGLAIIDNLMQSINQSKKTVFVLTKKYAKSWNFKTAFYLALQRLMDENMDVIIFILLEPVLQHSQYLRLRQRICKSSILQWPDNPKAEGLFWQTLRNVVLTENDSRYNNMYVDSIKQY
Assay: HEK-Blue hTLR8 SEAP reporter gene inhibition assay
Format: cell-based
Conditions: hTLR8 HEK-Blue cells, TLR8 ligand 10 µM, 20 hours, SEAP by Quanti-blue; class symbols; read-out: HEK-Blue hTLR8 IC50
Procedure: as §1, §2

With `C[C@@H]1CN(c2ccc(C#N)n3ncc(F)c23)Cc2c3c(nn21)CC(N)CCC3` (stereo partly drawn) [Example I-214, 4-((4R)-8-amino-4-methyl-1,3,4,7,8,9,10,11-octahydro-2H-cyclohepta[3,4]pyrazolo[1,5-a]pyrazin-2-yl)-3-fluoropyrazolo[1,5-a]pyridine-7-carbonitrile] the IC50 was under 100 nM.
